{"source": "patent US20150030561A1", "about": "“Use of CXCR4 Antagonists” (GENZYME CORP., priority 2011, published 2015)", "key": {"[1]": {"tested_on": "patients with myelokathexis attributable to mutations of CXCR4", "method": "[…] intrapatient escalating dose levels, 20 mcg/kg, 40 mcg/kg, 80 mcg/kg, and 240 mcg/kg were exam in d. The subjects were patients at the University of Washington General Clinical Research Center for up to 10 days; the study requires the subject to be available for up to 14 days.\nComplete blood counts were determined at 1, 3, 6, 9 and 24 hours with an automated counter and leukocyte differential counts confirmed manually. CD34^+ cells and lymphocyte subtypes were measured by FACS before and 6 hours after the 0.08 mg/kg dose."}, "[2]": {"conditions": "literature (Liles 2003; DiPersio 2009); cited from earlier work"}}, "note": "Like-named read-outs stand apart in the source and are kept apart here.", "data": [{"smiles": "c1cc(CN2CCCNCCNCCCNCC2)ccc1CN1CCCNCCNCCCNCC1", "note": "[plerixafor]", "values": [{"measurement": "hematocrit, hemoglobin and platelet counts", "setting": "[1]; 10 day testing period, except one patient with severe iron deficiency anemia", "result": "stable"}, {"measurement": "leukocyte response", "setting": "[1]; all 6 patients", "result": "prompt leukocytosis"}, {"measurement": "blood neutrophils 24 hours after dose", "setting": "[1]; another patient, 0.24 mg/kg dose", "result": "2e+09", "unit": "L⁻¹"}, {"measurement": "fold increase, peak neutrophil response", "setting": "[1]; controls (normal subjects similarly treated)", "result": 4.4, "unit": "fold"}, {"measurement": "blood neutrophils 24 hours after dose", "setting": "[1]; one patient, 0.16 mg/kg dose", "result": "greater than 2.0 ×10^9/L"}, {"measurement": "peak blood neutrophils (group mean of highest observed values)", "setting": "[1]; patient group, single s.c. doses 0.02 to 0.24 mg/kg, mean baseline 0.4±0.1×10^9/L", "result": "4.5±0.78 ×10^9/L"}, {"measurement": "absolute lymphocyte count increase from baseline to peak levels", "setting": "[1]; patients", "result": "approximately 14 fold"}, {"measurement": "absolute lymphocyte counts versus normal levels", "setting": "[1]; patients", "result": "transiently reached normal levels"}, {"measurement": "fold increase, peak neutrophil response", "setting": "[1]; patients", "result": 8.2, "unit": "fold"}, {"measurement": "CD34+ cells increase", "setting": "[1]; patients, 0.08 mg/kg dose, FACS before and 6 hours after", "result": "~6", "unit": "fold"}, {"measurement": "effect on neutropenia and lymphocytopenia", "setting": "[1]; patients, s.c. single doses", "result": "transiently correct neutropenia and lymphocytopenia"}, {"measurement": "effect on circulating CD34+ cells", "setting": "[2]", "result": "increases circulating CD34^+ cells"}, {"measurement": "leukocyte effect of subcutaneous administration", "setting": "[2]", "result": "dose-dependent leukocytosis"}]}]}
